A value given as a limit tells only on which side of the number the result lay.

The test has as its system Endogenous Huntingtin Protein. Description: Endogenous Huntingtin Protein Assay (Meso Scale Discovery ELISA-based electrochemiluminescence). It counts as cell-based. The settings on record: MSD plates coated with MW1 (expanded polyglutamine) or MAB2166 capture antibody; lysates. Summed up:
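MSD electrochemiluminescence sandwich ELISA: MW1 (expanded polyQ) or MAB2166 capture antibody at 1 μg/mL, samples incubated overnight at 4° C. Detection with rabbit monoclonal #5656S then SULFO-TAG anti-rabbit antibody, each 0.25 μg/mL for 1 h at room temperature.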
`Oc1cc(-c2cn[nH]c2)ccc1-c1cc2[nH]cc(C3CC4COCC(C3)N4)c2nn1` (stereo not shown) [Cpd 30, 2-[7-(3-oxa-9-azabicyclo[3.3.1]non-7-yl)-5H-pyrrolo[3,2-c]pyridazin-3-yl]-5-(1H-pyrazol-4-yl)phenol]: the IC50 lay in the range of 500 to 1000 nM.
Next, `CC1(C)CC(n2nnc3cc(-c4ccc(-c5ccnnc5)cc4O)nnc32)CC(C)(C)N1` [Cpd 76, 5-(pyridazin-4-yl)-2-[3-(2,2,6,6-tetramethylpiperidin-4-yl)-3H-[1,2,3]triazolo[4,5-c]pyridazin-6-yl]phenol]: 100 to 500 nM; `[2H]C([2H])([2H])n1cc(-c2ccc(-c3cc4cnn(C5CC(C)(C)NC(C)(C)C5)c4nn3)c(O)c2)cn1` [Cpd 102, 5-[1-(^2H3)methyl-1H-pyrazol-4-yl]-2-[1-(2,2,6,6-tetramethylpiperidin-4-yl)-1H-pyrazolo[3,4-c]pyridazin-5-yl]phenol]: no more than 100 nM; `CC1(C)CC(n2nnc3cc(-c4ccc(-c5cn6ccnc6cn5)cc4O)nnc32)CC(C)(C)N1` [Cpd 142, 5-(imidazo[1,2-a]pyrazin-6-yl)-2-[3-(2,2,6,6-tetramethylpiperidin-4-yl)-3H-[1,2,3]triazolo[4,5-c]pyridazin-6-yl]phenol]: no more than 100 nM.
The same measure for `CC1(C)CC(n2nnc3cc(-c4cc(O)c(-c5cn[nH]c5)cc4O)nnc32)CC(C)(C)N1` [Cpd 58, 2-(1H-pyrazol-4-yl)-5-[3-(2,2,6,6-tetramethylpiperidin-4-yl)-3H-[1,2,3]triazolo[4,5-c]pyridazin-6-yl]benzene-1,4-diol]: 100 to 500 nM; for `Oc1cc(-c2cn[nH]c2)ccc1-c1cc2scc(C3=CC4COCC(C3)N4)c2nn1` (stereo not shown) [Cpd 25, 2-[7-(3-oxa-9-azabicyclo[3.3.1]non-6-en-7-yl)thieno[3,2-c]pyridazin-3-yl]-5-(1H-pyrazol-4-yl)phenol]: no more than 100 nM.
`CN(C)c1ccc(-c2ccc(-c3cc4nnn(C5CC(C)(C)NC(C)(C)C5)c4nn3)c(O)c2)cn1` [Cpd 84, 5-[6-(dimethylamino)pyridin-3-yl]-2-[3-(2,2,6,6-tetramethylpiperidin-4-yl)-3H-[1,2,3]triazolo[4,5-c]pyridazin-6-yl]phenol] showed a 50% inhibitory concentration (IC50) of 1000 to 3000 nM.
Next, `CC1(C)C=C(c2csc3cc(-c4ccc(-c5cn[nH]c5)cc4O)nnc23)CC(C)(C)N1` [Cpd 17, 5-(1H-pyrazol-4-yl)-2-[7-(2,2,6,6-tetramethyl-1,2,3,6-tetrahydropyridin-4-yl)thieno[3,2-c]pyridazin-3-yl]phenol]: no more than 100 nM; `Cn1cc(-c2ccc(-c3cc4nnn(C5CC(C)(C)NC(C)(C)C5)c4nn3)c(O)c2)c(Cl)n1` [Cpd 127, 5-(3-chloro-1-methyl-1H-pyrazol-4-yl)-2-[3-(2,2,6,6-tetramethylpiperidin-4-yl)-3H-[1,2,3]triazolo[4,5-c]pyridazin-6-yl]phenol]: no more than 100 nM.
Next, `Cc1ccn(-c2ccc(-c3cc4nnn(C5CC(C)(C)NC(C)(C)C5)c4nn3)c(O)c2)n1` [Cpd 157, 5-(3-methyl-1H-pyrazol-1-yl)-2-(3-(2,2,6,6-tetramethylpiperidin-4-yl)-3H-[1,2,3]triazolo[4,5-c]pyridazin-6-yl)phenol]: 100 to 500 nM; `CC1(C)CC(n2nnc3cc(-c4ccc(-c5c[nH]nc5C#N)cc4O)nnc32)CC(C)(C)N1` [Cpd 109, 4-{3-hydroxy-4-[3-(2,2,6,6-tetramethylpiperidin-4-yl)-3H-[1,2,3]triazolo[4,5-c]pyridazin-6-yl]phenyl}-1H-pyrazole-3-carbonitrile]: no more than 100 nM.
Next, `CC1(C)CC(n2nnc3cc(-c4ccc(-c5cn[nH]c5)c5nn[nH]c45)nnc32)CC(C)(C)N1` [Cpd 117, 6-[4-(1H-pyrazol-4-yl)-1H-benzotriazol-7-yl]-3-(2,2,6,6-tetramethylpiperidin-4-yl)-3H-[1,2,3]triazolo[4,5-c]pyridazine]: 3000 to 9000 nM.
For `CC1(C)CC(n2nnc3cc(-c4cc(O)c(-c5cn[nH]c5)cc4F)nnc32)CC(C)(C)N1` [Cpd 33, 4-fluoro-2-(1H-pyrazol-4-yl)-5-[3-(2,2,6,6-tetramethylpiperidin-4-yl)-3H-[1,2,3]triazolo[4,5-c]pyridazin-6-yl]phenol], the half-maximal inhibitory concentration (IC50) is 500 to 1000 nM.
As for `Cc1nc2cc(-c3ccc(-c4cn[nH]c4)cc3O)nnc2n1C1CC(C)(C)NC(C)(C)C1` [Cpd 5, 2-[6-methyl-7-(2,2,6,6-tetramethylpiperidin-4-yl)-7H-imidazo[4,5-c]pyridazin-3-yl]-5-(1H-pyrazol-4-yl)phenol], the IC50 is no more than 100 nM.
The same measure for `CC1(C)C=C(c2c[nH]c3cc(-c4ccc(-c5cn[nH]c5)cc4O)nnc23)CC(C)(C)N1` [Cpd 20, 5-(1H-pyrazol-4-yl)-2-[7-(2,2,6,6-tetramethyl-1,2,3,6-tetrahydropyridin-4-yl)-5H-pyrrolo[3,2-c]pyridazin-3-yl]phenol]: no more than 100 nM; for `Cn1nccc1-c1ccc(-c2cc3nnn(C4CC(C)(C)NC(C)(C)C4)c3nn2)c(O)c1` [Cpd 50, 5-(1-methyl-1H-pyrazol-5-yl)-2-[3-(2,2,6,6-tetramethylpiperidin-4-yl)-3H-[1,2,3]triazolo[4,5-c]pyridazin-6-yl]phenol]: 100 to 500 nM; for `CC1(C)CC(n2nnc3cc(-c4cc(F)c(-c5ccc(O)cc5)cc4O)nnc32)CC(C)(C)N1` [Cpd 53, 6-fluoro-4-[3-(2,2,6,6-tetramethylpiperidin-4-yl)-3H-[1,2,3]triazolo[4,5-c]pyridazin-6-yl][1,1′-biphenyl]-3,4′-diol]: no more than 100 nM.
Next, `Oc1cc(-c2cn[nH]c2)ccc1-c1cc2[nH]cc(C3=CC4CCC(C3)N4)c2nn1` (stereo not shown) [Cpd 27, 2-[7-(8-azabicyclo[3.2.1]oct-2-en-3-yl)-5H-pyrrolo[3,2-c]pyridazin-3-yl]-5-(1H-pyrazol-4-yl)phenol]: no more than 100 nM.
Next, `Cc1nsc(-c2ccc(-c3cc4nnn(C5CC(C)(C)NC(C)(C)C5)c4nn3)c(O)c2)n1` [Cpd 153, 5-(3-methyl-1,2,4-thiadiazol-5-yl)-2-[3-(2,2,6,6-tetramethylpiperidin-4-yl)-3H-[1,2,3]triazolo[4,5-c]pyridazin-6-yl]phenol]: no more than 100 nM; `Cc1cn(-c2ccc(-c3cc4nnn(C5CC(C)(C)NC(C)(C)C5)c4nn3)c(O)c2)cn1` [Cpd 144, 5-(4-methyl-1H-imidazol-1-yl)-2-[3-(2,2,6,6-tetramethylpiperidin-4-yl)-3H-[1,2,3]triazolo[4,5-c]pyridazin-6-yl]phenol]: no more than 100 nM; `CC1(C)CC(n2nnc3cc(-c4ccc(-c5ccn(C6CC6)c(=O)c5)cc4O)nnc32)CC(C)(C)N1` [Cpd 86, 1-cyclopropyl-4-{3-hydroxy-4-[3-(2,2,6,6-tetramethylpiperidin-4-yl)-3H-[1,2,3]triazolo[4,5-c]pyridazin-6-yl]phenyl}pyridin-2(1H)-one]: 1000 to 3000 nM.
For `CC1(C)CC(n2nnc3cc(-c4ccc(-c5ccnc(OC(F)F)c5)cc4O)nnc32)CC(C)(C)N1` [Cpd 114, 5-[2-(difluoromethoxy)pyridin-4-yl]-2-[3-(2,2,6,6-tetramethylpiperidin-4-yl)-3H-[1,2,3]triazolo[4,5-c]pyridazin-6-yl]phenol], the 50% inhibitory concentration (IC50) lay within 1000 to 3000 nM.
The same measure for `CC1(C)CC(n2nnc3cc(-c4ccc(-n5cccn5)cc4O)nnc32)CC(C)(C)N1` [Cpd 34, 5-(1H-pyrazol-1-yl)-2-[3-(2,2,6,6-tetramethylpiperidin-4-yl)-3H-[1,2,3]triazolo[4,5-c]pyridazin-6-yl]phenol]: 100 to 500 nM; for `CC1(C)CC(n2nnc3cc(-c4ccc(-c5ccn6ccnc6c5)cc4O)nnc32)CC(C)(C)N1` [Cpd 90, 5-(imidazo[1,2-a]pyridin-7-yl)-2-[3-(2,2,6,6-tetramethylpiperidin-4-yl)-3H-[1,2,3]triazolo[4,5-c]pyridazin-6-yl]phenol]: 100 to 500 nM.
In the case of `COc1nc2cc(-c3ccc(-c4cn[nH]c4)cc3O)nnc2n1C1CC(C)(C)NC(C)(C)C1` [Cpd 40, 2-[6-methoxy-7-(2,2,6,6-tetramethylpiperidin-4-yl)-7H-imidazo[4,5-c]pyridazin-3-yl]-5-(1H-pyrazol-4-yl)phenol], the 50% inhibitory concentration (IC50) is 3000 to 9000 nM.
The same measure for `CC1(C)CC(n2cnc3cc(-c4cc(F)c(-c5cn[nH]c5)cc4F)nnc32)CC(C)(C)N1` [Cpd 4, 3-[2,5-difluoro-4-(1H-pyrazol-4-yl)phenyl]-7-(2,2,6,6-tetramethylpiperidin-4-yl)-7H-imidazo[4,5-c]pyridazine]: no more than 100 nM; for `CC1(C)CC(n2nnc3cc(-c4ccc(-c5ccnc6[nH]ccc56)cc4O)nnc32)CC(C)(C)N1` [Cpd 118, 5-(1H-pyrrolo[2,3-b]pyridin-4-yl)-2-[3-(2,2,6,6-tetramethylpiperidin-4-yl)-3H-[1,2,3]triazolo[4,5-c]pyridazin-6-yl]phenol]: 1000 to 3000 nM; for `Cc1cc(-c2ccc(-c3cc4nnn(C5CC(C)(C)NC(C)(C)C5)c4nn3)c(O)c2)ccn1` [Cpd 73, 5-(2-methylpyridin-4-yl)-2-[3-(2,2,6,6-tetramethylpiperidin-4-yl)-3H-[1,2,3]triazolo[4,5-c]pyridazin-6-yl]phenol]: no more than 100 nM.
Next, `CC1(C)C=C(c2coc3cc(-c4ccc(-c5cn[nH]c5)cc4O)nnc23)CC(C)(C)N1` [Cpd 105, 5-(1H-pyrazol-4-yl)-2-[7-(2,2,6,6-tetramethyl-1,2,3,6-tetrahydropyridin-4-yl)furo[3,2-c]pyridazin-3-yl]phenol]: no more than 100 nM.
Next, `CCCn1cc(-c2ccc(-c3cc4nnn(C5CC(C)(C)NC(C)(C)C5)c4nn3)c(O)c2)cn1` [Cpd 47, 5-(1-propyl-1H-pyrazol-4-yl)-2-[3-(2,2,6,6-tetramethylpiperidin-4-yl)-3H-[1,2,3]triazolo[4,5-c]pyridazin-6-yl]phenol]: 1000 to 3000 nM; `Cn1cc(-c2ccc(-c3cc4nnn(C5CC(C)(C)NC(C)(C)C5)c4nn3)c(O)c2)nn1` [Cpd 138, 5-(1-methyl-1H-1,2,3-triazol-4-yl)-2-[3-(2,2,6,6-tetramethylpiperidin-4-yl)-3H-[1,2,3]triazolo[4,5-c]pyridazin-6-yl]phenol]: 100 to 500 nM.

(Values after patent US11858941B2, “Heterocyclic and heteroaryl compounds for treating Huntington's disease” (PTC THERAPEUTICS, INC., priority 2018, dated 2024).)
